Laboratory results as given in the METLIN SMRT retention time set (Domingo-Almenara et al. 2019).

Experiment: gradient 5% acetonitrile 3 min, to 50% in 2 min, to 85% in 15 min, held 3 min, 100 µL/min
Conditions: column: Zorbax Extend-C18 2.1 x 50 mm; eluents: water / acetonitrile, 0.1% formic acid
Summary of the method: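 Values are retention times taken from adduct peaks that software picked and an analyst inspected. The pure standards were run as mixtures of ~100 molecules on HPLC linked to a quadrupole time-of-flight mass spectrometer, in positive and negative ionization mode. A Zorbax Extend-C18 column (2.1 × 50 mm, 1.8 μm) was used at 100 μL/min with water and acetonitrile, each including 0.1% formic acid.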

SMILES | RP-LC retention time
CCOC(=O)Cn1nc(-c2nc(-c3ccc(Cl)cc3)no2)ccc1=O | 1040 s
CN1CCN(CCCNC(=O)Cn2c(=O)c3cccn3c3ccc(F)cc32)CC1 | 589 s
CCN(CC)CCNS(=O)(=O)c1cc(-c2nc(C)c(C)s2)sc1C | 656 s
Cc1c(CNCC2CCCO2)c(C(=O)O)c(C)n1Cc1cccc(Cl)c1 (stereo not drawn) | 717 s
COc1ccc2[nH]cc(CCNC(=O)CCC3CCCCC3)c2c1 | 874 s
CCC(=O)CCCCC[C@@H]1NC(=O)[C@H]2CCCCN2C(=O)[C@H]([C@H](C)CC)NC(=O)[C@H](Cc2cn(OC)c3ccccc23)NC1=O | 965 s
COc1cccc(C(=O)N2CCC3(CC2)N=C(c2ccccc2)NO3)c1 | 728 s
CCC1=CC2CN3CCc4c([nH]c5ccccc45)[C@@](C(=O)OC)(C2)C13 | 681 s
CC(C)CC(=O)N1CCC2(CC1)NCc1ccccc1-n1ccnc12 | 594 s
CC(=O)N1CCC2(CC1)CC(CC(=O)O)CCO2 (stereo not drawn) | 588 s
Cc1ccc2c(c1)OCC(=O)N2Cc1nc(-c2ccc(C)c(C)c2)no1 | 1160 s
Cc1cccc(NC(=O)C2CC(=O)N(c3ccc4c(c3)CCN4C(=O)C3CC3)C2)c1C (stereo not drawn) | 763 s
Cc1cccc(-c2nc3ccccn3c2NC(=O)Nc2ccccc2F)c1 | 695 s
CCCNC(=O)Cn1cc(C(=O)Nc2cc(C)cc(C)c2)c(=O)c2ccc(C)nc21 | 982 s
COc1ccccc1CNC(=O)C1(c2ccc(NS(C)(=O)=O)cc2)CCCCC1 | 893 s
COc1ccc(CNC(=O)C2CCN(c3ncnc4c3oc3ccccc34)CC2)c(OC)c1 | 752 s
CCCn1c(C)cnc1C1CN(S(=O)(=O)c2ccccc2Cl)C1 | 660 s
O=C(c1cccc(Br)c1)N1CCN(c2nnc3ccccn23)CC1 | 662 s

SMILES | RP-LC retention time
CCN1CCN(c2nccc(-c3cnc4nc(-c5ccc(Cl)cc5)nn4c3C)n2)CC1 | 1010 s
CCC(=O)Nc1ccc(CCc2nc3ccc(C(=O)NCCC4=CCCCC4)cc3[nH]2)cc1 | 696 s
COC(=O)CNC(=O)NC(Cc1ccccc1)Cc1ccc2c(c1)OCO2 (stereo not drawn) | 810 s
O=C(c1ccc(OCC2CCCN2C(=O)C2CCCCC2)cc1)N1CCCC1 (stereo not drawn) | 888 s
Cc1oc(-c2cccs2)nc1COc1cc(C)c2c(C)nn(C)c2n1 | 1060 s
Cc1cccc(Nc2c(-c3ccc(N(C)C)cc3)nc3ncccn23)c1 | 745 s
CC(=O)N1CCC([C@@H]2CN(C(=O)C3(C)CCCCC3)C[C@H]2CO)CC1 | 631 s
Nc1nc(CN2CCN(c3ccccn3)CC2)nc(Nc2ccc(Oc3ccccc3)cc2)n1 | 669 s
COc1ccc(-c2nnc(-c3ccc(C)c(S(=O)(=O)NC(C)C(=O)O)c3)o2)cc1OC (stereo not drawn) | 748 s
CC1Cc2ccccc2N1C(=O)CSc1nnc(-c2ccccc2)o1 (stereo not drawn) | 1010 s
O=S(=O)(Nc1ccc(F)cc1)c1cccnc1Nc1ccc(Cl)cc1 | 1120 s
CC(C)Cn1c(=O)c(N2CCN(C(=O)Cc3ccsc3)CC2)nc2ccncc21 | 653 s
O=C(Cc1cccc(F)c1)NC1CCN(c2cc(-c3cccs3)[nH]n2)C1 (stereo not drawn) | 710 s
COc1cc(NC(=O)Cc2csc3nc(-c4ccccc4)cn23)cc(OC)c1 | 795 s
CCC1Oc2ccc(S(=O)(=O)N3CCC(C(=O)Nc4ccc(C)cc4)CC3)cc2NC1=O (stereo not drawn) | 903 s
Cc1cccc(OCCc2noc(C3CN(S(=O)(=O)N(C)C)C3)n2)c1 | 950 s
CC(C)CC(=O)Nc1ccc2c(c1)nc(CN1CCOCC1)n2C(C)C | 630 s
O=C(Nc1ccccc1)C1CCc2sc(C(=O)N3CCOCC3)cc2C1 (stereo not drawn) | 708 s

Continued, values first:

RP-LC retention time | SMILES
783 s | COc1ccc(-c2c(C)noc2NC(C)=O)cc1S(=O)(=O)Nc1ccccc1Cl
969 s | O=C(CSc1nnc2c3cc(-c4ccccc4)nn3ccn12)Nc1cccc(C(F)(F)F)c1
763 s | CCOc1ccc(CC(=O)Nc2cc3c(cc2N(C)C)n(C)c(=O)c(=O)n3C)cc1OCC
793 s | CCc1nnc(-c2ccc3ccn(CC(=O)NCc4cc(OC)ccc4OC)c3c2)o1
1020 s | CC(C)N1C(=O)c2cccnc2Sc2cc(NC(=O)C3(c4ccccc4)CC3)ccc21
576 s | CC(=O)N1CCc2cc(-c3ccc(C(=O)NCCN4CCCCCC4)cc3)ccc21
590 s | COc1ccc2c(c1)c(CN1CCC(C(=O)NCCN(C)Cc3ccccc3)CC1)cn2C
753 s | Cc1ccc(-c2nc(-c3ccc4c(c3)ncn4CCC(=O)N3CCCC3)no2)s1
657 s | O=C(Nc1nc(CC(=O)N2CCn3c2nc2ccccc23)cs1)c1ccsc1
1090 s | CCCc1ccc(S(=O)(=O)N2CCc3c(c(-c4nnc(SCC)n4CC)nn3C)C2)cc1
588 s | COCCC1(NS(C)(=O)=O)CCN(C(=O)NC(C)C)CC1
703 s | Cc1cc(C)cc(NC(=O)Cn2nc3n(c2=O)CCCCC3)c1
1180 s | CCN1C(=O)COc2ccc(-c3noc(-c4ccccc4Br)n3)cc21
716 s | CCCCCCNc1nc(-c2ccc(OC)cc2)c(CCC(=O)O)s1
890 s | CN1c2ccccc2C(=O)N2CCc3c([nH]c4ccccc34)C21 (stereo not drawn)
1090 s | C=CCN(Cc1nc(-c2cccc(C)c2)no1)C(=O)Nc1cccc(C)c1
888 s | CC(C)n1cnc(S(=O)(=O)N2CCC(C(=O)Nc3ccc(OC(F)(F)F)cc3)CC2)c1
1090 s | O=C(NCCC1=CCCCC1)C1CCCN(c2nccn3nc(-c4ccccc4Cl)cc23)C1 (stereo not drawn)
638 s | O=C1Nc2cc(C(=O)N3CCN(c4ccc(Cl)cc4)CC3)ccc2N2CCCCC12 (stereo not drawn)
617 s | O=C(Nc1nnc(-c2ccsc2)o1)c1ccno1
1300 s | Cc1ccc(C2Cn3nnc(-c4nc(-c5cccc(F)c5)no4)c3CO2)c(C)c1 (stereo not drawn)
1060 s | CCOc1ccccc1-c1noc(Cn2c(=O)n(CCCOC)c(=O)c3ccccc32)n1
1020 s | Cc1ccc(C)c(N2CCN(c3ccnc(SCC(=O)NC(C)CCc4ccccc4)n3)CC2)c1 (stereo not drawn)
552 s | Cc1ccc2nc(C(=O)NCCN3CCCCC3C)cn2c1 (stereo not drawn)
1300 s | Cc1sc2ncnc(N3CCCC(C)C3)c2c1C(=O)Nc1cccc(F)c1C (stereo not drawn)
810 s | CC(C)n1cnc2ccc(-c3noc(-c4cccc(F)c4)n3)cc21

RP-LC retention time | SMILES
941 s | CCOC(=O)C1CCN(C(=O)c2cn(-c3cc(N4CCC(C)CC4)ncn3)cn2)CC1
656 s | Cc1cc(N2CCN(C)CC2)n2nc(-c3ccc(C(C)(C)C)cc3)nc2n1
804 s | O=C(Cn1nc2c(Oc3ccc(Cl)cc3)nccn2c1=O)NCc1ccco1
907 s | O=C(c1ccsc1)N1CCCC1c1nc(-c2ccc(F)cc2F)no1 (stereo not drawn)
932 s | Cc1nc(-c2cn(C)c3ncccc23)sc1C(=O)N1CCN(c2ccccc2)CC1
931 s | O=C(c1cccc(F)c1)N1CCN(C(=O)c2nnn3c2COC(c2ccc(Cl)cc2)C3)CC1 (stereo not drawn)
690 s | O=C(O)c1cnc(-c2ccc(F)cc2)nc1-c1ccncc1
753 s | COC(=O)c1ncn2c1C(=O)N(c1ccc(C)cc1C)C(C)(C(=O)NC1CCCC1)C2 (stereo not drawn)
929 s | Fc1ccccc1-c1noc(NC2CCCC2)n1
946 s | COc1ccccc1C1CC(=O)Nc2c(S(=O)(=O)c3ccccc3)csc21 (stereo not drawn)
686 s | O=C(c1ccoc1)N1CCCC1Cc1noc(-c2cnccn2)n1 (stereo not drawn)
852 s | Cc1ccc(C)c(NC(=O)Cn2c(=O)n(-c3ccccc3)c3ncccc32)c1
679 s | CCN1CCC(N(Cc2cccs2)C(=O)Nc2ccccc2Br)CC1
670 s | CCOC(=O)N1CCN(c2nc(Nc3ccc(OC)cc3)c3nccnc3n2)CC1
826 s | CCn1c(=O)c(N2CCC(NC(=O)NCc3ccccc3)CC2)nc2cccnc21
888 s | CCc1ccc(NC(=O)Cn2c(=O)n(-c3ccc(F)cc3)c(=O)c3c2cc(C)n3C)cc1
761 s | CC(C)n1cc(S(=O)(=O)N2CCN(c3ccccc3Cl)CC2)c2cccnc21
747 s | Cc1nc2cc(-c3noc(CNC(=O)c4cccs4)n3)ccc2o1
1070 s | O=C1COc2ccc(Cl)cc2N1Cc1nc(-c2ccc(F)cc2)no1
640 s | O=C(Nc1ccc(F)cc1)N1C[C@H]2C[C@H](C1)[C@H]1CCCC(=O)N1C2
771 s | Cc1ccc(Nc2nc3ccncc3n(C(C)C)c2=O)cc1Cl
976 s | COCCc1noc(-c2nc(-c3ccc(OC)cc3)no2)n1
616 s | C=CCn1c(SCC(=O)N2CCC(C(N)=O)CC2)nnc1-c1sc2ncccc2c1N
815 s | Cc1nc(Cn2cccc2C(=O)Nc2ccc(F)cc2)no1
832 s | Cc1cccc(CN2N=C(C(=O)N3CCOCC3)S(=O)(=O)c3ccccc32)c1
1130 s | CCOc1cccc(C2c3[nH]c4ccccc4c3CCN2C(=O)c2ccco2)c1 (stereo not drawn)
